Assay results: patent US8785442B2, “Compound as antagonist of lysophosphatidic acid receptor, composition, and use thereof” (Curegenix, Inc., priority 2011, dated 2014)
pIC50: −log10 of the molar value.

test system: highly peritoneal metastatic pancreatic cancer cell line; experiment: not given; conditions: highly peritoneal metastatic pancreatic cancer cell line (Yamada, 2004); cited from earlier work

| Structure (SMILES) | LPA-induced and ascites-induced invasion activity |
| --- | --- |
| Cc1noc(-c2ccc(CSCCC(=O)O)cc2)c1NC(=O)OC(C)c1ccccc1Cl (stereo not drawn) [Ki16425] | blocked |

target: T1, human LPA1 receptor (Homo sapiens, UniProt Q92633); experiment: calcium flux assay (LPA Receptor Assays); format: cell-based; conditions: not given
T1 construct: The 1.1 kb cDNA encoding the full-length coding region of human LPA1 was subcloned into the pRK5; expressed in transfected cells; host or cells: HEK293 or CHO cells
T1 sequence (Q92633 whole entry): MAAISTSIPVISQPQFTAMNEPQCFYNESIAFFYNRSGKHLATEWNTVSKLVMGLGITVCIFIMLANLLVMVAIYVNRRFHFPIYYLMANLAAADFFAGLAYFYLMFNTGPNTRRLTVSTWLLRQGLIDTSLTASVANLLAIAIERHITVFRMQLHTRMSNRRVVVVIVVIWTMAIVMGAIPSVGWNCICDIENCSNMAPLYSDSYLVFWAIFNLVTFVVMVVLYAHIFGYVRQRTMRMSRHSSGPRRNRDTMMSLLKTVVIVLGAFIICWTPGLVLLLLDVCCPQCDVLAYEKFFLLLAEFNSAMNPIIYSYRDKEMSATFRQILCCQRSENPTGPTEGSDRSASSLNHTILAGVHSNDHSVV
Experimental: A cDNA encoding the human LPA1 receptor was cloned by PCR from cDNA clone obtained from commercial sources. The nucleotide sequence was determined by sequencing and confirmed to be identical to the published human LPA1 sequence (An, 1997). The 1.1 kb cDNA encoding the full-length coding region of human LPA1 was subcloned into the pRK5 […] expression vector. Transfection of the cDNA into HEK293 or CHO cells is performed by using LipofectAmine 2000 (Invitrogen, USA). The full-length cDNA fragments for human LPA2 and LPA3 were obtained by PCR similarly and subcloned into pCDNA3.1 expression vector.
Transfected cells were cultured and subjected to LPA-induced SRE-luciferase reporter gene assay by using generally described methods (An, 1997). Intact HEK293 or CHO cells expressing the recombinant human LPA1 receptor were subjected to a [3H]-LPA ligand binding assay as described (An, 1998).
All compounds presented in the patent have IC50<20 μM in the calcium flux assay.

| Structure (SMILES) | pIC50 |
| --- | --- |
| Cc1noc(-c2ccc(NS(C)(=O)=O)cc2)c1NC(=O)OC(C)c1ccccc1Cl (stereo not drawn) [Compound 1, 1-(2-chlorophenyl)ethyl(3-methyl-5-(4-(methylsulfonamido)phenyl)isoxazol-4-yl)carbamate] | 7.05 |
| Cc1noc(-c2ccc3[nH]ncc3c2)c1NC(=O)OC(C)c1ccccc1Cl (stereo not drawn) [Compound 3, 1-(2-chlorophenyl)ethyl(5-(1H-indazol-5-yl)-3-methylisoxazol-4-yl)carbamate] | 6.26 |
| Cc1noc(-c2ccc(NC(=O)C3CC3)cc2)c1NC(=O)OC(C)c1ccccc1Cl (stereo not drawn) [Compound 7, 1-(2-chlorophenyl)ethyl(5-(4-(cyclopropanecarboxamido)phenyl)-3-methylisoxazol-4-yl)carbamate] | 5.94 |
| Cc1noc(-c2ccc(NC(=O)CCC(=O)O)cc2)c1NC(=O)OC(C)c1ccccc1Cl (stereo not drawn) [Compound 12, 4-((4-(4-(((1-(2-chlorophenyl)ethoxy)carbonyl)amino)-3-methylisoxazol-5-yl)phenyl)amino)-4-oxobutanoic acid] | 7.15 |
| Cc1noc(-c2ccc(NC(=O)c3ccccc3)cc2)c1NC(=O)OC(C)c1ccccc1Cl (stereo not drawn) [Compound 16, 1-(2-chlorophenyl)ethyl(5-(4-benzamidophenyl)-3-methylisoxazol-4-yl)carbamate] | 5.66 |
| Cc1noc(-c2ccc(NS(C)(=O)=O)cc2)c1NC(=O)O[C@H](C)c1ccccc1Cl [Compound 19, (R)-1-(2-chlorophenyl)ethyl(3-methyl-5-(4-(methylsulfonamido)phenyl)isoxazol-4-yl)carbamate] | 7.26 |
| Cc1noc(-c2ccc(NS(=O)(=O)CCC(=O)O)cc2)c1NC(=O)OC(C)c1ccccc1Cl (stereo not drawn) [Compound 28, 3-(N-(4-(4-(((1-(2-chlorophenyl)ethoxy)carbonyl)amino)-3-methylisoxazol-5-yl)phenyl)sulfamoyl)propanoic acid] | 6.96 |
| Cc1noc(-c2ccc(NS(C)(=O)=O)cc2F)c1NC(=O)OC(C)c1ccccc1Cl (stereo not drawn) [Compound 32, 1-(2-chlorophenyl)ethyl(5-(2-fluoro-4-(methylsulfonamido)phenyl)-3-methylisoxazol-4-yl)carbamate] | 7.15 |
| Cc1noc(-c2ccc(NS(C)(=O)=O)cc2)c1NC(=O)OC(C)c1ccc(F)cc1Cl (stereo not drawn) [Compound 42, 1-(2-chloro-4-fluorophenyl)ethyl(3-methyl-5-(4-(methylsulfonamido)phenyl)isoxazol-4-yl)carbamate] | 7.22 |
| Cc1noc(-c2ccc(NC(=O)CCC(=O)O)cc2F)c1NC(=O)O[C@H](C)c1ccccc1Cl [Compound 50, (R)-4-((4-(4-(((1-(2-chlorophenyl)ethoxy)carbonyl)amino)-3-methylisoxazol-5-yl)-3-fluorophenyl)amino)-4-oxobutanoic acid] | 7.15 |

test system: breast cancer cells; experiment: not given; conditions: animal models (Boucharaba, 2006); cited from earlier work

| Structure (SMILES) | metastasis of breast cancer cells to bone |
| --- | --- |
| Cc1noc(-c2ccc(CSCCC(=O)O)cc2)c1NC(=O)OC(C)c1ccccc1Cl (stereo not drawn) [Ki16425] | inhibited |
